# Legend:
# [1] = test system: Galr2–β-arrestin2–clathrin complex; assay: β-arrestin2–clathrin interactions (NanoBit); assay type: cell-based, human; conditions: 30 μM cmpd101 (GRK2/3 inhibitor) pretreatment; 10 μM agonist
# Source text: The interaction between β-arrestin2 and clathrin induced by the activation of Galr2 was examined using the NanoBit technology. We measured real-time association of the protein complex Galr2–β-arrestin2–clathrin. We constructed β-arrestin2 and clathrin subunit A tagged with LgBit or SmBit at the C or N termini and screened eight different plasmid combinations, out of which only one combination (β-arrestin2–LgBit:SmBit–clathrin) responded to ligand stimulation (Fig. 3, Supplementary Fig. 3). Before ligand stimulation, Galr2, β-arrestin2, and clathrin were not in close proximity and so the basal luminescence was very low. […] A time course experiment was initially performed to determine the time at which the maximal increase in luminescence occurred following agonist stimulation. All ligands except for Fmoc-dA4-dQ14 induced different fold increase in luminescence immediately after ligand treatment (Fig. 3b). […] Galanin- and Spexin-induced increases in luminescence were attenuated by pretreatment of cmpd101, a G-protein-coupled receptor kinase 2/3 (GRK2/3) inhibitor, indicating contribution of GRK2/3 in the formation of Galr2–β-arrestin2–clathrin complex (Fig. 3).
# The arrows indicate the time when the cells were treated with different ligands. […] The results are expressed as mean ± s.e.m. of three experiments performed in triplicate. Each triplicate was averaged before calculating the s.e.m.
# (§1) Quantification of bias between each pathway was performed using Galanin as a reference ligand. All incubations for the different signaling assays were performed in serum-free medium to prevent peptide degradation.
# One day before transfection, cells were seeded in 96-well plates at a density of 2.5 × 10^4 cells per well. A mixture containing 35 ng β-arrestin construct containing the LgBit or SmBit, 35 ng clathrin subunit A containing one of the two domains of Nluc and 30 ng untagged receptor, and 0.2 μl Lipofectamine 2000 (Invitrogen) was prepared and added to each well. We followed the assay manufacturer’s instructions and tested eight β-arrestin-clathrin plasmid combinations. In only one plasmid combination we were able to observe luminescent signal and it was chosen for further experiments. At 24 h post transfection, medium was aspirated and replaced with 100 μl OPTIMEM at room temperature. After a 10-min incubation, 25 μl substrate (furimazine) was added and the luminescence was monitored once every minute for 10 min. Then, 10 μl ligand was added to each well and the luminescence values were recorded immediately and once every minute for 1 h (Synergy 2 Multi-Mode Microplate Reader BioTek).
# [2] = test system: Galr2; assay: Galr2 internalization assay based on HiBiT technology; assay type: cell-based, human; conditions: 30 μM Cmpd101 30 min; 25 μM PitStop 2 (clathrin) 15 min; 80 μM Dynasore (dynamin) 40 min; Galanin 30 min
# Experimental: The HiBiT protein tagging system, like NanoBiT technology, consists of two subunits: the large fragment (LgBiT) with 156 amino acids and the small fragment of Nluc (SmBiT-High-affinity) with only 11 amino acids that has a very high affinity to LgBit. To quantify Galr2 at the cell surface, cells expressing Galr2 tagged with the SmBiT-High-affinity were treated with cell-impermeable LgBiT along with the Nluc substrate furimazine. SmBiT-High-affinity-Galr2 on the cell surface binds to LgBiT which produces a luminescent signal, while SmBiT-High-affinity-Galr2 inside the cells cannot bind to LgBiT (Fig. 4a).
# Fig. 4 Internalization of Galr2. a Schematic representation of the internalization assay. […] Before ligand stimulation, cells were pretreated with 30 μM Cmpd101 (a GRK2/3 inhibitor) for 30 min, 25 μM PitStop 2 (a Clathrin inhibitor) for 15 min, and 80 μM Dynasore (a Dynamin inhibitor) for 40 min. […] Remaining cell surface receptors were determined by measuring the luminescent signal produced by the binding between LgBiT and the Galr2-SmBiT-High affinity. Each data point represents mean ± s. e. m. of two independent experiments performed in triplicate
# as §1
# Internalization assays were performed using the Nano-Glo HiBiT extracellular detection system acquired from Promega Corporation (Cat. No. N2421). The day before transfection, HEK293 cells were seeded in 96-well plates at a density of 2.5 × 10^4 cells per well. The following day, cells were transfected with a mixture prepared containing 0.5 ng of SmBiT-high-affinity-Galr2 construct and 0.2 μl Lipofectamine 2000 (Invitrogen) added to each well. […] Then luminescence values were recorded immediately (Synergy 2 Multi-Mode Microplate Reader BioTek). […]
# [3] = test system: luteinizing hormone (LH) secretion; conditions: cited from earlier work
# Source text: G-protein-coupled receptors (GPCRs) are the largest family of cell surface receptors that communicate extracellular stimuli to the cell interior[1]. Biased ligands are of particular interest because they offer the possibility to design a novel class of therapeutic agents. In some GPCRs, biased ligands that preferentially activate G-protein-dependent signaling have therapeutic potential. […] Most descriptions of biased ag ...
Compound,effect of pretreatment on Galanin- and Spexin-induced β-arrestin2–clathrin luminescence increase [1],effect of inhibitor on Galanin-induced Galr2 internalization [2],"LH secretion, rat [3]"
"Cn1c(CNc2cccc(C(=O)NCc3ccccc3C(F)(F)F)c2)nnc1-c1ccncc1 [cmpd101, reference compound]",attenuated,partially blocked,
"galanin-like peptide: galanin-like peptide, a Galanin paralog (APAHRGRGGWTLNSAGYLLGPVLHLPQMGDQDGKRETALEILDLWKAIDGLPYSHPPQPS; Galanin-like peptide; UniProt Q9UBC7 25-84, looked up)",,,stimulates luteinizing hormone (LH) secretion
